Laboratory results: article PMC11487390, “Design and Synthesis of 1,3-Diarylpyrazoles and Investigation of Their Cytotoxicity and Antiparasitic Profile” (International Journal of Molecular Sciences, 2024)
Where a name gives a salt, the structure may show the parent alone.

Experiments:
[1] = Cytotoxicity assay, MRC-5SV2 cells, resazurin, 3 days; assay type: cell-based; settings: human, MRC-5 cells, highest concentration 64 µM
Experimental: The series of final products (13–69) was investigated in vitro on the human fetal lung fibroblast cell line MRC-5 (Table 1) to assess cytotoxicity toward normal (i.e., non-malignant) human cells. […] As explained earlier, these are important pathogens for humans or cattle (T. b. brucei) and a persistent need for new therapeutics exists for these parasites. As a part of the antiparasitic tests, cytotoxicity against primary mouse macrophages (PMMs) was also evaluated. These murine cells serve as host cells for parasites in the L. infantum assay. Therefore, the murine macrophage assay not only offers additional cytotoxicological insight but is also essential to interpreting the readout of the L. infantum assay.
(§1) The MRC-5SV2 human lung fibroblast cell line was cultured in MEM + Earle’s salts-medium, supplemented with 2 mM L-glutamine, 16.5 mM NaHCO3, and 5% inactivated fetal calf serum. For evaluating the antileishmanial activity, the L. infantum MHOM/MA(BE)/67 strain was used. This strain was maintained in a Golden hamster (Mesocricetus auratus). Amastigotes were collected from the spleen of an infected donor hamster using differential centrifugation. Primary peritoneal mouse macrophages were used as host cells and were collected 2 days after peritoneal stimulation with a 2% potato starch suspension. For the intracellular T. cruzi assays, the Tulahuen CL2 strain was used that expresses β-galactosidase. The strain was maintained in MRC-5SV2 cells in MEM medium. The T. b. brucei Squib 427 strain or T. b. rhodesiense STIB-900 strain was used for screening against the extracellular African trypanosomes. The strains were maintained in Hirumi’s Modified Iscove’s medium-9 (HMI-9), supplemented with 10% inactivated fetal calf serum. All cultures and assays were performed at 37 °C with 5% CO2.
(§2) Compound stock solutions were prepared in 100% DMSO at 20 mM. The compounds were serially pre-diluted by robotic plate production (4-fold) in DMSO followed by a further (intermediate) dilution in demineralized water to assure a final in-test DMSO concentration of <1%. Identical test plates containing 10 µL of the different concentrations of each compound were produced for the different assays. For the cytotoxicity assays, 5 concentrations per compound were tested (64–16–4–1–0.25 µM). For the parasitic assays, 10 concentrations per compound were tested, ranging from 64 µM to 0.2 nM.
Assays were performed in sterile 96-well microtiter plates, each well containing 10 µL of the watery compound dilutions together with 190 µL of MRC-5SV2 inoculum (1.5 × 10^5 cells/mL). Cell growth was compared to untreated control wells (100% cell growth) and medium-control wells (0% cell growth). After 3 days incubation, MRC-5 viability was assessed fluorimetrically after addition of 50 μL resazurin per well (final concentration of 10 µg mL^−1). After 4 h at 37 °C, fluorescence was measured (λex 550 nm, λem 590 nm). The results were expressed as % reduction in cell growth/viability compared to positive (100% growth–0% inhibition) and negative (0% growth–100% inhibition) control wells from which EC50 values (50% effective concentrations) were derived using an excel macro that calculates the interpolation of the concentrations corresponding to the flanking points, just above and just below 50% inhibition.

[2] = tested on: L. infantum MHOM/MA(BE)/67 strain; assay: L. infantum intracellular amastigote assay in PMM (Giemsa, 5 days); assay type: cell-based, Leishmania infantum; settings: Leishmania infantum, 120 h, read-out: L. inf. (EC50, µM), amastigotes in PMM, 5 days
Experimental: as §1, §2
Primary peritoneal mouse macrophages (PMMs) were prepared in RPMI-1640 medium, supplemented with 2 mM L-glutamine, 16.5 mM NaHCO3, and 5% inactivated fetal calf serum. The macrophages are infected after 48 h with spleen-derived L. infantum amastigotes (3 × 10^4 PMM + 4.5 × 10^5 parasites/well). The compounds were added after 2 h of infection. After 5 days incubation, parasite burdens (mean number of amastigotes/macrophage) were assessed microscopically after staining with a 10% Giemsa solution and EC50 values were calculated.

[3] = tested on: T. b. brucei Squib 427 strain; assay: T. b. brucei growth assay (resazurin, 3 days); assay type: cell-based, Trypanosoma brucei brucei; settings: Trypanosoma brucei, 72 h, read-out: T. b. bruc. (EC50, µM), 3 days
Experimental: as §1, §2
(§3) Parasite suspensions (1.5 × 10^4 T. b. brucei/well or 4 × 10^3 T. b. rhodesiense/well) in HMI-9 medium were exposed in a total volume of 200 µL to 10 µL of the compound dilutions Parasite growth was assessed fluorimetrically after 3 days of incubation by the addition of 50 µL resazurin per well. After 6 h (T. b. rhodesiense) or 24 h (T. b. brucei) at 37 °C, fluorescence was measured (λex 550 nm, λem 590 nm), from which viability and EC50 values could be determined.

[4] = tested on: T. b. rhodesiense STIB-900 strain; assay: T. b. rhodesiense growth assay (resazurin, 3 days); assay type: cell-based, Trypanosoma brucei rhodesiense; settings: Trypanosoma brucei, RHODESIENSE, 72 h, read-out: T. b. rhod. (EC50, µM), 3 days
Experimental: as §1, §2, §3

[5] = tested on: Trypanosoma cruzi Tulahuen CL2 strain; assay: Intracellular T. cruzi assay in MRC-5 cells (β-galactosidase/CPRG, 7 days); assay type: cell-based; settings: Trypanosoma cruzi, TULAHUEN, MRC5, 168 h, intracellular in MRC-5 cells
Experimental: as §1, §2
MRC-5 cells were infected in 96-well plates using a harvested T. cruzi inoculum (4 × 10^3 MRC-5 cells/well + 4 × 10^4 parasites/well) and exposed to 10 µL of the compound dilutions (200 µL/well total volume). Parasite growth determined after 7 days of incubation and compared to untreated infected controls following the addition of the substrate CPRG (chlorophenolred ß-D-galactopyranoside): 50 µL/well of a stock solution containing 15.2 mg CPRG + 250 µL Nonidet in 100 mL PBS. The absorbance was measured spectrophotometrically at 540 nm after 4 h incubation at 37 °C and EC50 values were calculated.

[6] = MRC-5SV2 human lung fibroblast cells

Row | SMILES | EC50 at 3 days [1, 6] [µM] | other results
1 | COc1ccc(-c2nn(-c3ccccc3)cc2CNCCc2ccc(F)cc2)cc1OC [Compound 67, N-((3-(3,4-dimethoxyphenyl)-1-phenyl-1H-pyrazol-4-yl)methyl)-2-(4-fluorophenyl)ethan-1-amine hydrochloride] | 1.22 | –
2 | COc1ccc(-c2nn(-c3ccccc3)cc2CN2CCOCC2)cc1 [Compound 66, 4-((3-(4-methoxyphenyl)-1-phenyl-1H-pyrazol-4-yl)methyl)morpholine hydrochloride] | > 64 | EC50 [2]: 34.6 µM; EC50 [3]: 27.8 µM; EC50 [4]: 20.5 µM; EC50 [5]: 22.4 µM
3 | Fc1ccc(CCNCc2cn(-c3ccccc3)nc2-c2ccc3c(c2)OCO3)cc1 [Compound 56, N-((3-(benzo[d] [1,3]dioxol-5-yl)-1-phenyl-1H-pyrazol-4-yl)methyl)-2-(4-fluorophenyl)ethan-1-amine hydrochloride] | – | EC50 at 3 days [1]: 6.65 µM
4 | O=C(Nc1ccccc1)c1cn(-c2ccccc2)nc1-c1ccc2c(c1)OCCO2 [Compound 30, 3-(2,3-dihydrobenzo[b][1,4]dioxin-6-yl)-N,1-diphenyl-1H-pyrazole-4-carboxamide] | 9.19 | –
5 | COc1ccc(-c2nn(-c3ccccc3)cc2CNCCc2ccccn2)cc1 [Compound 64, N-((3-(4-methoxyphenyl)-1-phenyl-1H-pyrazol-4-yl)methyl)-2-(pyridin-2-yl)ethan-1-amine hydrochloride] | 28.9 | EC50 [2]: 8.06 µM; EC50 [3]: 1.7 µM; EC50 [4]: 1.57 µM; EC50 [5]: 7.15 µM
6 | c1ccc(-n2cc(CNCCN3CCCC3)c(-c3ccc4c(c3)OCCO4)n2)nc1 [Compound 69, N-((3-(2,3-dihydrobenzo[b][1,4]dioxin-6-yl)-1-(pyridin-2-yl)-1H-pyrazol-4-yl)methyl)-2-(pyrrolidin-1-yl)ethan-1-amine dihydrochloride] | > 64 | EC50 [2]: > 64 µM; EC50 [3]: 22.7 µM; EC50 [4]: 24.8 µM; EC50 [5]: > 64 µM
7 | CN1CCN(Cc2cn(-c3ccccc3)nc2-c2ccc3c(c2)OCCO3)CC1 [Compound 24, 1-((3-(2,3-dihydrobenzo[b][1,4]dioxin-6-yl)-1-phenyl-1H-pyrazol-4-yl)methyl)-4-methylpiperazine] | 18.2 | –
8 | COc1ccc(-c2nn(-c3ccccc3)cc2CNCCc2cccnc2)cc1 [Compound 63, N-((3-(4-methoxyphenyl)-1-phenyl-1H-pyrazol-4-yl)methyl)-2-(pyridin-3-yl)ethan-1-amine hydrochloride] | 16.4 | –
9 | c1ccc(-n2cc(CNCCN3CCOCC3)c(-c3ccc4c(c3)OCO4)n2)cc1 [Compound 61, N-((3-(benzo[d] [1,3]dioxol-5-yl)-1-phenyl-1H-pyrazol-4-yl)methyl)-2-morpholinoethan-1-amine dihydrochloride] | 17.1 | –
10 | c1ccc(CNCc2cn(-c3ccccc3)nc2-c2ccc3c(c2)OCCO3)cc1 [Compound 15, N-benzyl-1-(3-(2,3-dihydrobenzo[b][1,4]dioxin-6-yl)-1-phenyl-1H-pyrazol-4-yl)methanamine hydrochloride] | 5.42 | –
11 | CN1CCN(CCNC(=O)c2cn(-c3ccccc3)nc2-c2ccc3c(c2)OCCO3)CC1 [Compound 43, 3-(2,3-dihydrobenzo[b][1,4]dioxin-6-yl)-N-(2-(4-methylpiperazin-1-yl)ethyl)-1-phenyl-1H-pyrazole-4-carboxamide] | 19 | –
12 | Fc1ccc(CNCc2cn(-c3ccccc3)nc2-c2ccc3c(c2)OCO3)cc1 [Compound 55, 1-(3-(benzo[d] [1,3]dioxol-5-yl)-1-phenyl-1H-pyrazol-4-yl)-N-(4-fluorobenzyl)methanamine hydrochloride] | 1 | –
13 | c1ccc(-n2cc(CNCCc3cccnc3)c(-c3ccc4c(c3)OCCO4)n2)cc1 [Compound 20, N-((3-(2,3-dihydrobenzo[b][1,4]dioxin-6-yl)-1-phenyl-1H-pyrazol-4-yl)methyl)-2-(pyridin-3-yl)ethan-1-amine hydrochloride] | 8.95 | –
14 | c1ccc(-n2cc(CNCCc3cccnc3)c(-c3ccc4c(c3)OCO4)n2)cc1 [Compound 58, N-((3-(benzo[d] [1,3]dioxol-5-yl)-1-phenyl-1H-pyrazol-4-yl)methyl)-2-(pyridin-3-yl)ethan-1-amine hydrochloride] | 19.4 | –
15 | c1ccc(CCNCc2cn(-c3ccccc3)nc2-c2ccc3c(c2)OCCO3)cc1 [Compound 17, N-((3-(2,3-dihydrobenzo[b][1,4]dioxin-6-yl)-1-phenyl-1H-pyrazol-4-yl)methyl)-2-phenylethan-1-amine hydrochloride] | 0.56 | –
16 | Fc1ccc(CNCc2cn(-c3ccccc3)nc2-c2ccc3c(c2)OCCO3)cc1 [Compound 16, 1-(3-(2,3-dihydrobenzo[b][1,4]dioxin-6-yl)-1-phenyl-1H-pyrazol-4-yl)-N-(4-fluorobenzyl)methanamine hydrochloride] | 6.65 | –
17 | CN1CCN(CCNCc2cn(-c3ccccc3)nc2-c2ccc3c(c2)OCCO3)CC1 [Compound 27, N-((3-(2,3-dihydrobenzo[b][1,4]dioxin-6-yl)-1-phenyl-1H-pyrazol-4-yl)methyl)-2-(4-methylpiperazin-1-yl)ethan-1-amine trihydrochloride] | 6.94 | –
18 | Fc1ccc(Cc2cn(-c3ccccc3)nc2-c2ccc3c(c2)OCCO3)cc1 [Compound 51, 3-(2,3-dihydrobenzo[b][1,4]dioxin-6-yl)-4-(4-fluorobenzyl)-1-phenyl-1H-pyrazole] | > 64 | –
19 | COc1ccc(-c2nn(-c3ccccc3)cc2CNCCc2ccncc2)cc1 [Compound 62, N-((3-(4-methoxyphenyl)-1-phenyl-1H-pyrazol-4-yl)methyl)-2-(pyridin-4-yl)ethan-1-amine hydrochloride] | 9.66 | –
20 | c1ccc(-n2cc(CNCCc3ccncc3)c(-c3ccc4c(c3)OCO4)n2)cc1 [Compound 57, N-((3-(benzo[d] [1,3]dioxol-5-yl)-1-phenyl-1H-pyrazol-4-yl)methyl)-2-(pyridin-4-yl)ethan-1-amine hydrochloride] | 4 | –
21 | c1ccc(-n2cc(CN3CCCC3)c(-c3ccc4c(c3)OCCO4)n2)cc1 [Compound 23, 3-(2,3-dihydrobenzo[b][1,4]dioxin-6-yl)-1-phenyl-4-(pyrrolidin-1-ylmethyl)-1H-pyrazole oxalate] | 18.2 | –
